Reference: patent US8648066B2 (Exelixis, Inc., priority 2009, dated 2014)

Target: mTOR/GbL/Raptor (mTORC1) (Homo sapiens, UniProt P42345)
Experiment: mTOR/GbL/Raptor (mTORC1) ELISA assay
Type: biochemical
Settings: phosphorylation of 4E-BP1; 0.2 nM mTORC1, 10 μM ATP; read-out: IC50 in this assay (mTORC1 ELISA)
How it was run: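 Human mTORC1 (0.2 nM) phosphorylated 50 nM His-tagged 4E-BP1 with 10 µM ATP in HEPES pH 7.2 containing 10 mM MnCl2, 120 min at ambient temperature. Substrate was captured on Ni-chelate plates; phospho-4E-BP1 was detected by primary antibody and HRP secondary with luminescence.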

| SMILES | IC50 [nM] |
| --- | --- |
| CC1(C)CCc2ncnc(N3CCOc4ccc(-c5cnc(N)c(S(=O)(=O)NCCCO)c5)cc4C3)c2C1 [Example 375, 2-amino-5-[4-(6,6-dimethyl-5,6,7,8-tetrahydroquinazolin-4-yl)-2,3,4,5-tetrahydro-1,4-benzoxazepin-7-yl]-N-(3-hydroxypropyl)pyridine-3-sulfonamide] | ≤ 10 |
| CC1(C)CCc2ncnc(N3CCOc4ccc(-c5cnc(N)c(S(=O)(=O)NCC6CCCCN6)c5)cc4C3)c2C1 (stereo not drawn) [Example 376, 2-amino-5-[4-(6,6-dimethyl-5,6,7,8-tetrahydroquinazolin-4-yl)-2,3,4,5-tetrahydro-1,4-benzoxazepin-7-yl]-N-(piperidin-2-ylmethyl)pyridine-3-sulfonamide] | 10 to 50 |
| CC1(C)CCc2ncnc(N3CCOc4ccc(-c5cnc(N)c(S(=O)(=O)NCC6CCCNC6)c5)cc4C3)c2C1 (stereo not drawn) [Example 377, 2-amino-5-[4-(6,6-dimethyl-5,6,7,8-tetrahydroquinazolin-4-yl)-2,3,4,5-tetrahydro-1,4-benzoxazepin-7-yl]-N-(piperidin-3-ylmethyl)pyridine-3-sulfonamide] | 50 to 250 |
| CC1(C)CCc2ncnc(N3CCOc4ccc(-c5cnc(N)c(S(=O)(=O)NCC6CCNCC6)c5)cc4C3)c2C1 [Example 378, 2-amino-5-[4-(6,6-dimethyl-5,6,7,8-tetrahydroquinazolin-4-yl)-2,3,4,5-tetrahydro-1,4-benzoxazepin-7-yl]-N-(piperidin-4-ylmethyl)pyridine-3-sulfonamide] | 50 to 250 |
| CN(C)C(=O)c1cc(-c2ccc3c(c2)CN(c2ncnc4c2CC(C)(C)CC4)CCO3)cnc1N [Example 379, 2-amino-5-[4-(6,6-dimethyl-5,6,7,8-tetrahydroquinazolin-4-yl)-2,3,4,5-tetrahydro-1,4-benzoxazepin-7-yl]-N,N-dimethylpyridine-3-carboxamide] | 50 to 250 |
| CN(C)S(=O)(=O)c1cc(-c2ccc3c(c2)CN(c2ncnc4c2CC(C)(C)CC4)CCO3)cnc1N [Example 380, 2-amino-5-[4-(6,6-dimethyl-5,6,7,8-tetrahydroquinazolin-4-yl)-2,3,4,5-tetrahydro-1,4-benzoxazepin-7-yl]-N,N-dimethylpyridine-3-sulfonamide] | 10 to 50 |
| CN1CCC(CNS(=O)(=O)c2cc(-c3ccc4c(c3)CN(c3ncnc5c3CC(C)(C)CC5)CCO4)cnc2N)CC1 [Example 381, 2-amino-5-[4-(6,6-dimethyl-5,6,7,8-tetrahydroquinazolin-4-yl)-2,3,4,5-tetrahydro-1,4-benzoxazepin-7-yl]-N-[(1-methylpiperidin-4-yl)methyl]pyridine-3-sulfonamide] | 250 to 1000 |
| CC1(C)CCc2ncnc(N3CCOc4ccc(-c5cnc(N)c(S(=O)(=O)NC[C@H]6CCCN6)c5)cc4C3)c2C1 [Example 382, 2-amino-5-[4-(6,6-dimethyl-5,6,7,8-tetrahydrquinazolin-4-yl)-2,3,4,5-tetrahydro-1,4-benzoxazepin-7-yl]-N-[(2R)-pyrrolidin-2-ylmethyl]pyridine-3-sulfonamide] | 10 to 50 |
| CC1(C)CCc2ncnc(N3CCOc4ccc(-c5cnc(N)c(S(=O)(=O)NC[C@@H]6CCCN6)c5)cc4C3)c2C1 [Example 383, 2-amino-5-[4-(6,6-dimethyl-5,6,7,8-tetrahydroquinazolin-4-yl)-2,3,4,5-tetrahydro-1,4-benzoxazepin-7-yl]-N-[(2S)-pyrrolidin-2-ylmethyl]pyridine-3-sulfonamide] | 50 to 250 |
| CC1(C)CCc2ncnc(N3CCOc4ccc(-c5cnc(N)c(S(=O)(=O)NC[C@H]6C[C@H]7CNC[C@H]7C6)c5)cc4C3)c2C1 [Example 384, 2-amino-5-[4-(6,6-dimethyl-5,6,7,8-tetrahydroquinazolin-4-yl)-2,3,4,5-tetrahydro-1,4-benzoxazepin-7-yl]-N-[(3aR,5r,6aS)-octahydrocyclopenta[c]pyrrol-5-ylmethyl]pyridine-3-sulfonamide] | 50 to 250 |
| CN1CC[C@@H](NS(=O)(=O)c2cc(-c3ccc4c(c3)CN(c3ncnc5c3CC(C)(C)CC5)CCO4)cnc2N)C1 [Example 385, 2-amino-5-[4-(6,6-dimethyl-5,6,7,8-tetrahydroquinazolin-4-yl)-2,3,4,5-tetrahydro-1,4-benzoxazepin-7-yl]-N-[(3R)-1-methylpyrrolidin-3-yl]pyridine-3-sulfonamide] | 50 to 250 |
| CC1(C)CCc2ncnc(N3CCOc4ccc(-c5cnc(N)c(S(=O)(=O)NC[C@@H]6CCCNC6)c5)cc4C3)c2C1 [Example 386, 2-amino-5-[4-(6,6-dimethyl-5,6,7,8-tetrahydroquinazolin-4-yl)-2,3,4,5-tetrahydro-1,4-benzoxazepin-7-yl]-N-[(3R)-piperidin-3-ylmethyl]pyridine-3-sulfonamide] | 250 to 1000 |
| CC1(C)CCc2ncnc(N3CCOc4ccc(-c5cnc(N)c(S(=O)(=O)N[C@@H]6CCNC6)c5)cc4C3)c2C1 [Example 387, 2-amino-5-[4-(6,6-dimethyl-5,6,7,8-tetrahydroquinazolin-4-yl)-2,3,4,5-tetrahydro-1,4-benzoxazepin-7-yl]-N-[(3R)-pyrrolidin-3-yl]pyridine-3-sulfonamide] | ≤ 10 |
| CC1(C)CCc2ncnc(N3CCOc4ccc(-c5cnc(N)c(S(=O)(=O)NC[C@@H]6CCNC6)c5)cc4C3)c2C1 [Example 388, 2-amino-5-[4-(6,6-dimethyl-5,6,7,8-tetrahydroquinazolin-4-yl)-2,3,4,5-tetrahydro-1,4-benzoxazepin-7-yl]-N-[(3R)-pyrrolidin-3-ylmethyl]pyridine-3-sulfonamide] | 10 to 50 |
| CC1(C)CCc2ncnc(N3CCOc4ccc(-c5cnc(N)c(S(=O)(=O)NC[C@H]6CCCNC6)c5)cc4C3)c2C1 [Example 389, 2-amino-5-[4-(6,6-dimethyl-5,6,7,8-tetrahydroquinazolin-4-yl)-2,3,4,5-tetrahydro-1,4-benzoxazepin-7-yl]-N-[(3S)-piperidin-3-ylmethyl]pyridine-3-sulfonamide] | 10 to 50 |
| CC1(C)CCc2ncnc(N3CCOc4ccc(-c5cnc(N)c(S(=O)(=O)N[C@H]6CCNC6)c5)cc4C3)c2C1 [Example 390] | 10 to 50 |

Now from value to molecule:

| IC50 [nM] | SMILES |
| --- | --- |
| 10 to 50 | CC1(C)CCc2ncnc(N3CCOc4ccc(-c5cnc(N)c(S(=O)(=O)NC[C@H]6CCNC6)c5)cc4C3)c2C1 [Example 391, 2-amino-5-[4-(6,6-dimethyl-5,6,7,8-tetrahydroquinazolin-4-yl)-2,3,4,5-tetrahydro-1,4-benzoxazepin-7-yl]-N-[(3S)-pyrrolidin-3-ylmethyl]pyridine-3-sulfonamide] |
| 50 to 250 | COCCNS(=O)(=O)c1cc(-c2ccc3c(c2)CN(c2ncnc4c2CC(C)(C)CC4)CCO3)cnc1N [Example 392, 2-amino-5-[4-(6,6-dimethyl-5,6,7,8-tetrahydroquinazolin-4-yl)-2,3,4,5-tetrahydro-1,4-benzoxazepin-7-yl]-N-[2-(methyloxy)ethyl]pyridine-3-sulfonamide] |
| 50 to 250 | CN1CCC[C@H](CNS(=O)(=O)c2cc(-c3ccc4c(c3)CN(c3ncnc5c3CC(C)(C)CC5)CCO4)cnc2N)C1 [Example 393, 2-amino-5-[4-(6,6-dimethyl-5,6,7,8-tetrahydroquinazolin-4-yl)-2,3,4,5-tetrahydro-1,4-benzoxazepin-7-yl]-N-{[(3S)-1-methylpiperidin-3-yl]methyl}pyridine-3-sulfonamide] |
| 50 to 250 | CN1CC[C@H](CNS(=O)(=O)c2cc(-c3ccc4c(c3)CN(c3ncnc5c3CC(C)(C)CC5)CCO4)cnc2N)C1 [Example 394, 2-amino-5-[4-(6,6-dimethyl-5,6,7,8-tetrahydroquinazolin-4-yl)-2,3,4,5-tetrahydro-1,4-benzoxazepin-7-yl]-N-{[(3S)-1-methylpyrrolidin-3-yl]methyl}pyridine-3-sulfonamide] |
| 50 to 250 | CCN(C)S(=O)(=O)c1cc(-c2ccc3c(c2)CN(c2ncnc4c2CC(C)(C)CC4)CCO3)cnc1N [Example 395, 2-amino-5-[4-(6,6-dimethyl-5,6,7,8-tetrahydroquinazolin-4-yl)-2,3,4,5-tetrahydro-1,4-benzoxazepin-7-yl]-N-ethyl-N-methylpyridine-3-sulfonamide] |
| 10 to 50 | CCNS(=O)(=O)c1cc(-c2ccc3c(c2)CN(c2ncnc4c2CC(C)(C)CC4)CCO3)cnc1N [Example 396, 2-amino-5-[4-(6,6-dimethyl-5,6,7,8-tetrahydroquinazolin-4-yl)-2,3,4,5-tetrahydro-1,4-benzoxazepin-7-yl]-N-ethylpyridine-3-sulfonamide] |
| ≤ 10 | CNS(=O)(=O)c1cc(-c2ccc3c(c2)CN(c2ncnc4c2CC(C)(C)CC4)CCO3)cnc1N [Example 397, 2-amino-5-[4-(6,6-dimethyl-5,6,7,8-tetrahydroquinazolin-4-yl)-2,3,4,5-tetrahydro-1,4-benzoxazepin-7-yl]-N-methylpyridine-3-sulfonamide] |
| 50 to 250 | CC1(C)CCc2ncnc(N3CCOc4ccc(-c5cnc(N)c(S(=O)(=O)NC6CCNCC6)c5)cc4C3)c2C1 [Example 398] |
| ≤ 10 | CC1(C)CCc2ncnc(N3CCOc4ccc(-c5cnc(N)c(S(N)(=O)=O)c5)cc4C3)c2C1 [Example 399, 2-amino-5-[4-(6,6-dimethyl-5,6,7,8-tetrahydroquinazolin-4-yl)-2,3,4,5-tetrahydro-1,4-benzoxazepin-7-yl]pyridine-3-sulfonamide] |
| 50 to 250 | CC1(C)CCc2ncnc(N3CCOc4ccc(-c5cnc(N)c(S(=O)(=O)O)c5)cc4C3)c2C1 [Example 400, 2-amino-5-[4-(6,6-dimethyl-5,6,7,8-tetrahydrquinazolin-4-yl)-2,3,4,5-tetrahydro-1,4-benzoxazepin-7-yl]pyridine-3-sulfonic acid] |
| ≤ 10 | CNS(=O)(=O)c1cc(-c2ccc3c(c2)CN(c2ncnc4c2CC(C)(C)C=C4)CCO3)cnc1N [Example 401, 2-amino-5-[4-(6,6-dimethyl-5,6-dihydroquinazolin-4-yl)-2,3,4,5-tetrahydro-1,4-benzoxazepin-7-yl]-N-methylpyridine-3-sulfonamide] |
